Literature values, collected in patent US8679103B2, “Two step mammalian biofilm treatment processes and systems” (priority 2008, dated 2014).
Values after ≈ are worked out from the molar mass of the structure shown.

System: S. aureus Xen 31
Conditions: stated as established

Compound: O=C(O)c1cn(C2CC2)c2cc(N3CCNCC3)c(F)cc2c1=O [ciprofloxacin]
- minimum inhibitory concentration: 3 µg/mL (≈ 9.05 µM)
